According to US8785460B2, “Tricyclic compounds and use thereof” (Takeda Pharmaceutical Company Limited, priority 2008, dated 2014):
Where a name gives a salt, the structure may show the parent alone.

biological target: T1, human CRF1 receptor (Homo sapiens, UniProt P34998); experiment: Measurement of CRF Binding Inhibitory Rate (receptor binding experiment with 125I-CRF); settings: human CRF1 receptor expressing CHO cellular membrane fraction, 50 pM 125I-CRF, room temperature 1.5 hr, 0.05 nM to 10 μM of compound; read-out: IC50 values (CRF binding inhibition)
T1 construct: expressed in transfected cells; host or cells: CHO cells (membrane fraction)
T1 sequence (P34998 24-415): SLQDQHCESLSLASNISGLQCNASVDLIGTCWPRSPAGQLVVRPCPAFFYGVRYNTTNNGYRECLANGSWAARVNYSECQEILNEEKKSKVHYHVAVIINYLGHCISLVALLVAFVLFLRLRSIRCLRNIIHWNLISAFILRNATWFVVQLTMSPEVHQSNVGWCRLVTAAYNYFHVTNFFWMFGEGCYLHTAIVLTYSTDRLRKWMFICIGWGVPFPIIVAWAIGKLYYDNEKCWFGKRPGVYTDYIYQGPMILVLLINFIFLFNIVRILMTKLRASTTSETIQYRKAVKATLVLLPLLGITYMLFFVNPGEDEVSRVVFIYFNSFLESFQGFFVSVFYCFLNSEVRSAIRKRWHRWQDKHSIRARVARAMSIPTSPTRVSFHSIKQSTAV
Method: Measurement of CRF Binding Inhibitory Rate
A receptor binding experiment was carried out using a human CRF1 receptor expressing CHO cellular membrane fraction and ovine CRF, [^125I]-tyr^0(^125I-CRF). 1000 nM of a test compound was incubated with 1 μg of human CREF receptor expressing CHO cellular membrane fraction and 50 pM of ^125I-CRF in a binding assay buffer (50 mM Tris-HCl, 5 mM EDTA, 10 mM MgCl2, 0.05% CHAPS, 0.1% BSA, 0.5 mM PMSF, 0.1 μg/mL pepstatin, 20 μg/mL leupeptin, pH 7.5). In addition, for measuring nonspecific binding (NSB), 0.1 μM unlabelled human Urocortin was incubated with 5 μg of human CRE receptor expressing CHO cellular membrane fraction and 50 pM of ^125I-CRF in a binding assay buffer. After a binding reaction was carried out at room temperature for 1.5 hr, the membrane was entrapped on a glass filter (UniFilter plate GF-C/Perkin Elmer) by suction filtration using a cell harvester (Perkin Elmer), and washed with ice-cooled 50 mM Tris-HCl (pH 7.5). After drying the glass filter, a liquid scintillation cocktail (Microscinti 0, Perkin Elmer) was added, and the radioactivity of ^125I-CRF remaining on a glass filter was measured using Topcount (Perkin Elmer).
(TB−SB)/(TB−NSB)×100 (SB: radioactivity when a compound is added, TB: maximum binding radioactivity, NSB: nonspecific binding radioactivity) were calculated to obtain binding inhibitory rates under the range of the presence from 0.05 nM to 10 μM of each compound. The IC50 values were calculated by using GraphPad Prism software.

**Q.** For `C=COC(CC)c1ccc(Cl)c2nc3n(c12)CCCN3c1ccc(Cl)cc1Cl` (centres unmarked) [Example 305, 9-Chloro-1-(2,4-dichlorophenyl)-6-[1-(ethenyloxy)propyl]-1,2,3,4-tetrahydropyrimido[1,2-a]benzimidazole], which IC50 is on record?
**A.** Its IC50 is less than 1 µM.

**Q.** `CCC(CC)c1ccc(Cl)c2nc3n(c12)CCCCN3c1ccc(C)cc1C=O` [Example 34, 2-[10-Chloro-7-(1-ethylpropyl)-2,3,4,5-tetrahydro-1H-[1,3]diazepino[1,2-a]benzimidazol-1-yl]-5-methylbenzaldehyde] was tested. Which IC50 did it give?
**A.** Its IC50 is less than 1 µM.

**Q.** With `CCC(CC)c1ccc(Cl)c2nc3n(c12)CCCCN3c1cccnc1OC` [Example 55, 10-Chloro-7-(1-ethylpropyl)-1-(2-methoxypyridin-3-yl)-2,3,4,5-tetrahydro-1H-[1,3]diazepino[1,2-a]benzimidazole] as the compound, how does the IC50 read?
**A.** The IC50 was less than 1 µM.

**Q.** How did the IC50 turn out when `Cc1nc(OC(C)C)ccc1N1CCCn2c1nc1c(Cl)ccc(C(OC(F)F)C(F)(F)F)c12` (centres unmarked) [Example 288, 9-Chloro-6-[1-(difluoromethoxy)-2,2,2-trifluoroethyl]-1-[2-methyl-6-(1-methylethoxy)pyridin-3-yl]-1,2,3,4-tetrahydropyrimido[1,2-a]benzimidazole] was run?
**A.** Its IC50 is less than 1 µM.

**Q.** How did the IC50 turn out when `CCC(CC)c1ccc(Cl)c2nc3n(c12)CCN3c1ccc(Cl)cc1CN(C)C` [Example 8, 1-{5-Chloro-2-[8-chloro-5-(1-ethylpropyl)-2,3-dihydro-1H-imidazo[1,2-a]benzimidazol-1-yl]phenyl}-N,N-dimethylmethanamine] was run?
**A.** Its IC50 is less than 1 µM.

**Q.** For `CCC(CC)c1ccc(Cl)c2nc3n(c12)CCCCN3c1ccc(C)cc1CN(C)C` [Example 35, 1-{2-[10-Chloro-7-(1-ethylpropyl)-2,3,4,5-tetrahydro-1H-[1,3]diazepino[1,2-a]benzimidazol-1-yl]-5-methylphenyl}-N,N-dimethylmethanamine hydrochloride], which IC50 is on record?
**A.** The IC50 was less than 1 µM.

**Q.** Which IC50 does the source give for `CCC(OC(C)=O)c1ccc(Cl)c2nc3n(c12)CCCN3c1ccc(C(N)=O)cc1Cl` (centres unmarked) [Example 255, 1-[1-(4-Carbamoyl-2-chlorophenyl)-9-chloro-1,2,3,4-tetrahydropyrimido[1,2-a]benzimidazol-6-yl]propyl acetate] here?
**A.** The IC50 was less than 1 µM.

**Q.** `NC(c1ccc(Cl)c2nc3n(c12)CCCN3c1c(Cl)cc(Cl)cc1Cl)C(F)(F)F` (centres unmarked) [Example 414, 1-[9-Chloro-1-(2,4,6-trichlorophenyl)-1,2,3,4-tetrahydropyrimido[1,2-a]benzimidazol-6-yl]-2,2,2-trifluoroethanamine] was tested. Which IC50 did it give?
**A.** The IC50 was less than 1 µM.

**Q.** For `CCC(OC1CC1)c1ccc(Cl)c2nc3n(c12)CCCN3c1ccc(OC)nc1C` (centres unmarked) [Example 271, 9-Chloro-6-[1-(cyclopropyloxy)propyl]-1-(6-methoxy-2-methylpyridin-3-yl)-1,2,3,4-tetrahydropyrimido[1,2-a]benzimidazole], which IC50 is on record?
**A.** The IC50 was less than 1 µM.

**Q.** `CCC(CC)c1ccc(Cl)c2nc3n(c12)CC(=O)N3c1c(C)cc(Cl)cc1OC` [Example 2, 8-Chloro-1-(4-chloro-2-methoxy-6-methylphenyl)-5-(1-ethylpropyl)-1H-imidazo[1,2-a]benzimidazol-2(3H)-one] was tested. Which IC50 did it give?
**A.** Its IC50 is less than 1 µM.

**Q.** `COc1ccc(N2CCCCn3c2nc2c(Cl)ccc(CO)c23)c(Cl)c1` [Example 331, [10-Chloro-1-(2-chloro-4-methoxyphenyl)-2,3,4,5-tetrahydro-1H-[1,3]diazepino[1,2-a]benzimidazol-7-yl]methanol] was tested. Which IC50 did it give?
**A.** The IC50 was less than 1 µM.

**Q.** With `Clc1ccc(N2CCCn3c2nc2c(Cl)ccc(N4CCCC4)c23)c(Cl)c1` [Example 196, 9-Chloro-1-(2,4-dichlorophenyl)-6-pyrrolidin-1-yl-1,2,3,4-tetrahydropyrimido[1,2-a]benzimidazole] as the compound, how does the IC50 read?
**A.** The IC50 was less than 1 µM.

**Q.** Which IC50 does the source give for `O=[N+]([O-])c1ccc(Cl)c2nc3n(c12)CCCN3c1ccc(Cl)cc1Cl` [Example 99, 9-Chloro-1-(2,4-dichlorophenyl)-6-nitro-1,2,3,4-tetrahydropyrimido[1,2-a]benzimidazole] here?
**A.** The IC50 was less than 1 µM.

**Q.** `CCC(CC)c1ccc(Cl)c2nc3n(-c4c(C)cc(Cl)cc4OC)c(Cl)cn3c12` [Example 10, 2,8-Dichloro-1-(4-chloro-2-methoxy-6-methylphenyl)-5-(1-ethylpropyl)-1H-imidazo[1,2-a]benzimidazole] was tested. Which IC50 did it give?
**A.** Its IC50 is less than 1 µM.
